Type in all cases: cell-based
What all share (details): for Expected inhibition: Ee, Limpel formula; for Synergy: Io-Ee

Assay [1] deals with Candida albicans. The assay can be described thus: Antifungal growth assay, defensin plus chemical fungicide. The arrangement: key to Synergy: Io-Ee in % inhibition points; <15 none, 15-30 low, 30-60 medium, >60 high. As for the experimental part: Chemical fungicides were sourced commercially and were prepared as 10× stock solutions in H2O (caspofungin and fenpropimorph) or as a 100× stock in methanol (terbinafine).
(§1) Spores are isolated from sporulating fungus spp. growing on yeast extract peptone dextrose agar (Candida albicans, Cryptococcus gattii—1.5×10^6) or ½ strength Sabouraud dextrose agar (Trichophyton interdigitale, Microsporum fulvum—5×10^4). Spores are removed from the plates by the addition of ½ strength potato dextrose broth (PDB). Spore concentrations are measured using a haemocytometer.
(§2) Antifungal assays were conducted in 96 well microtitre plates. Wells were loaded with 10 μL of filter sterilized (0.22 μm syringe filter, Millipore) defensin (10× stock for each final concentration) or water, 10 μL, of filter sterilized (0.22 μm syringe filter, Millipore) proteinase inhibitor or chemical fungicide (10× stock for each final concentration) or water and 80 μL of 5×10^3 spores/mL in ½ strength PDB. The plates were incubated at 24° C. Fungal growth was assayed by measuring optical density at 595 nm (A595) using a microtitre plate reader (SpectraMax Pro M2; Molecular Devices. Growth was allowed to proceed until the optical density (OD) of the fungus in the absence of any test defensin reached an OD of 0.2. Each test was performed in duplicate.
(§3) Synergy is classified as the difference between the observed % fungal growth inhibition caused by the combination of a defensin and a proteinase inhibitor (or a defensin and a chemical fungicide) (Io value) and the expected % fungal growth inhibition of the defensin and the proteinase inhibitor (or the defensin and the chemical fungicide) based on the sum of the % fungal growth inhibition of the defensin and the proteinase inhibitor (or the defensin and the chemical fungicide) on their own (Ee value calculated according to the Limpel formula used by Richer et al. (1987) supra). The difference, Io-Ee, is the synergy value. A synergy value up to 15 means no significant synergy; 15-30 is a low level of synergy; 30-60 is a medium level of synergy; and >60 is a high level of synergy. Synergy calculations are presented in Tables 2 through 7 wherein, as indicated above, Ee is the expected effect from the additive response according to Limpel's formula expressed as percent inhibition and To is the percent inhibition observed. Synergy occurs when To values are higher than Ee values.

Assay [2] has as its system Candida albicans. The assay can be described thus: Antifungal growth assay, defensin plus proteinase inhibitor. More on the design: key to Synergy: Io-Ee in % inhibition points; >60 high synergy, <15 none. As to the method:
as §1, §2, §3

Assay [3] has as its system Trichophyton interdigitale. Described as above. As for the experimental part:
as §1, §2, §3

The mark [4] stands for this setting: defensin 2.5 μM + Caspofungin (4 ng/ml).
Where [5] appears, read: defensin 4 μM + BPTI (0.625 μM).
The mark [6] stands for this setting: defensin 4 μM + HyCPI6 (2.5 μM).
Where [7] appears, read: defensin 0.5 μM + BPTI (0.625 μM).
Where [8] appears, read: defensin 0.5 μM + HvCPI6 (2.5 μM).
Setting [9] is: defensin 0.5 μM + SlCys9N (2.5 μM).
Setting [10] is: permeabilizing defensin 1 μM + Caspofungin (2 ng/ml).
The mark [11] stands for this setting: defensin 2 μM + BPTI (0.625 μM).
[12] abbreviates: defensin 2 μM + HyCPI6 (2.5 μM).
The mark [13] stands for this setting: defensin 2 μM + SlCys9N (2.5 μM).
The mark [14] stands for this setting: defensin 2 μM + Fenpropimorph (2 ug/ml).
Setting [15] is: defensin 4 μM + SlCys9N (2.5 μM).
[16] abbreviates: defensin 1 μM + HyCPI6 (2.5 μM).
Setting [17] is: defensin 1 μM + SlCys9N (2.5 μM).
Where [18] appears, read: defensin 1 μM + Fenpropimorph (2 ug/ml).
The mark [19] stands for this setting: defensin 1 μM + BPTI (0.625 μM).
Setting [20] is: non-permeabilizing defensin 1 μM + Caspofungin (2 ng/ml).

We go through nine substances from patent US10568930B2, “Agents and methods of treatment” (Hexima Limited, priority 2014, dated 2020).

As for “HXL001: Class I permeabilizing plant defensin, mature protein SEQ ID NO:26 (RHCLSQSHRFKGLCMSSNNCANVCQTENFPGGECKAEGATRKCFCKKIC; HXL001 Zea mays)”, the Observed inhibition was 73.4% in the assay on Candida albicans [1] (setting [4]); 72.6% in the assay with Candida albicans [2] (setting [5]); 84.2% in the assay with Candida albicans [2] (setting [6]); 85.0% in the assay on Candida albicans [2] (defensin 4 μM + SlCys9N (2 μM)); 67.4% in assay [3] (setting [7]); 84.7% in assay [3] (setting [8]). Also, the Observed inhibition in assay [3] (setting [9]) is 70.2%. Further, the Expected inhibition turned out to be 11.7% in the assay on Candida albicans [1] (setting [4]); 2.6% in the assay with Candida albicans [2] (setting [5]); 59.2% with Candida albicans [2] (setting [6]); 68.1% in the assay with Candida albicans [2] (defensin 4 μM + SlCys9N (2 μM)); 36.9% in assay [3] (setting [7]); 32.5% in assay [3] (setting [8]). Moreover, in assay [3] (setting [9]), the Expected inhibition turned out to be 16.8%. The Synergy in the assay on Candida albicans [1] (setting [4]) worked out at 61.7; in the assay on Candida albicans [2] (setting [5]), 70.1; with Candida albicans [2] (setting [6]), 25.0; in the assay with Candida albicans [2] (defensin 4 μM + SlCys9N (2 μM)) it was 16.9; in assay [3] (setting [7]) it was 30.5; in assay [3] (setting [8]) it was 52.2. In addition, the Synergy in assay [3] (setting [9]) was 53.4.
On to “HXL002: Class I permeabilizing plant defensin, mature protein SEQ ID NO:27 (RDCLSQSHKFKGACLSSSNCAAVCRTENFPDGECHTHNFARKCFCKRAC; HXL002 Triticum aestivum)”, for which, in the assay on Candida albicans [1] (setting [4]), the Observed inhibition turned out to be 40.8%, the Expected inhibition is recorded as 6.1% and the Synergy is 34.7.
Regarding “HXL004: Class I permeabilizing plant defensin, mature protein SEQ ID NO:28 (RTCESQSHRFKGLCFSRSNCASVCHTEGFNGGHCRGFRRRCFCTRHC; HXL004 Nicotiana benthamiana)”, the Observed inhibition with Candida albicans [1] (setting [10]) came out at 92.3%; in the assay with Candida albicans [2] (setting [11]), 91.2%; in the assay with Candida albicans [2] (setting [12]) it was 93.5%; in the assay with Candida albicans [2] (setting [13]) it was 81.8%. Further, the Expected inhibition in the assay with Candida albicans [1] (setting [10]) is recorded as 14.0%; in the assay with Candida albicans [2] (setting [11]), 9.6%; with Candida albicans [2] (setting [12]), 63.6%; with Candida albicans [2] (setting [13]), 55.2%. For the same substance, the Synergy in the assay on Candida albicans [1] (setting [10]) is given as 78.3; in the assay with Candida albicans [2] (setting [11]), 81.6; with Candida albicans [2] (setting [12]), 29.9; with Candida albicans [2] (setting [13]) it was 26.6.
Turning to “HXL008: Class I permeabilizing plant defensin, mature protein SEQ ID NO:30 (KVCTKPSKFFKGLCGTDGACTTACRKEGLHSGYCQLKGFLNSVCVCRKHC; HXL008 Picramnia pentandra)”, the Observed inhibition with Candida albicans [1] (setting [14]) is 87.3%; in the assay with Candida albicans [2] (setting [11]), 100.0%; in the assay with Candida albicans [2] (setting [12]), 63.8%; in the assay on Candida albicans [2] (setting [13]), 98.9%. The Expected inhibition with Candida albicans [1] (setting [14]) stood at 46.7%; in the assay with Candida albicans [2] (setting [11]), 0.0%; in the assay on Candida albicans [2] (setting [12]), 14.8%; in the assay on Candida albicans [2] (setting [13]), 30.2%. The Synergy in the assay on Candida albicans [1] (setting [14]) is 40.6; with Candida albicans [2] (setting [11]), 100.0; in the assay on Candida albicans [2] (setting [12]) it was 49.0; in the assay with Candida albicans [2] (setting [13]) it was 68.7.
With “HXL009: Class I permeabilizing plant defensin, mature protein SEQ ID NO:33 (TVCMRHNNFYHGPCMSNKDCANSCVQHNLGVGGYCRGKIPFNKECMCTFEC; HXL009)”, in the assay on Candida albicans [1] (setting [4]), the Observed inhibition stood at 65.2%, the Expected inhibition is listed as 3.7% and the Synergy is reported as 61.5.
On to “HXL012: Class I permeabilizing plant defensin, mature protein SEQ ID NO:25 (RMCKAPSKLFRGMCGIRDSNCDSVCRAEGMAAGDCHGLRRRCICSRPC; HXL012 Amaranthus retroflexus)”, for which the Observed inhibition in the assay on Candida albicans [1] (setting [4]) is 51.2%; with Candida albicans [2] (setting [5]) it was 89.7%; in the assay with Candida albicans [2] (setting [6]), 100.0%; in the assay with Candida albicans [2] (setting [15]), 97.3%. The Expected inhibition in the assay on Candida albicans [1] (setting [4]) was 0%; in the assay with Candida albicans [2] (setting [5]), 14.8%; in the assay with Candida albicans [2] (setting [6]), 12.3%; with Candida albicans [2] (setting [15]), 34.5%. Moreover, the Synergy with Candida albicans [1] (setting [4]) is reported as 51.2; with Candida albicans [2] (setting [5]), 74.9; in the assay with Candida albicans [2] (setting [6]) it was 87.7; in the assay with Candida albicans [2] (setting [15]), 62.8.
Regarding “HXL013: Class I permeabilizing plant defensin, mature protein SEQ ID NO:31 (KDCLTRRHGFQGRCLFDRQCAHVCRSDGFIGGQCRGPLRKCFCSRPC; HXL013 glycine max)”, in the assay on Candida albicans [1] (setting [10]), the Observed inhibition turned out to be 90.8%, the Expected inhibition was 4.3% and the Synergy was found to be 86.5. Further, in the assay with Candida albicans [2] (setting [16]), the Observed inhibition amounted to 100.0%, the Expected inhibition was 10.1% and the Synergy was found to be 89.9. In the assay on Candida albicans [2] (setting [17]), the Observed inhibition is recorded as 100.0%, the Expected inhibition stood at 13.8% and the Synergy is 86.2.
Consider “HXL015: Class I permeabilizing plant defensin, mature protein SEQ ID NO:32 (RHCLSQSHRFKGMCVSSNNCANVCRTESFPDGECKSHGLERKCFCKKVC; HXL015 Oryza sativa)”, for which the Observed inhibition worked out at 71.8% with Candida albicans [1] (setting [18]), 100.0% in the assay on Candida albicans [2] (setting [19]), 100.0% in the assay with Candida albicans [2] (setting [16]) and 94.7% in the assay with Candida albicans [2] (setting [17]). Also, the Expected inhibition in the assay with Candida albicans [1] (setting [18]) worked out at 19%; in the assay on Candida albicans [2] (setting [19]), 28.1%; in the assay on Candida albicans [2] (setting [16]) it was 0.0%; with Candida albicans [2] (setting [17]), 0.0%. The Synergy in the assay with Candida albicans [1] (setting [18]) worked out at 52.8; in the assay on Candida albicans [2] (setting [19]), 71.9; with Candida albicans [2] (setting [16]), 100.0; in the assay with Candida albicans [2] (setting [17]), 94.7.
“RsAFP2: non-permeabilizing defensin used as comparison (QKLCQRPSGTWSGVCGNNNACKNQCIRLEKARHGSCNYVFPAHKCICYFPC; UniProt P30230 30-80, looked up) [reference compound]”: in the assay on Candida albicans [1] (setting [20]), the Observed inhibition was 19.0%, the Expected inhibition is given as 1.7% and the Synergy was 17.3.
